Measured values published in ChEMBL document CHEMBL4052645, “Discovery of potent and efficacious pyrrolopyridazines as dual JAK1/3 inhibitors” (Bioorg Med Chem Lett, 2017).

Tests used:
[1] = molecular target: Tyrosine-protein kinase JAK2 (Homo sapiens, UniProt O60674); assay: Inhibition of GST-tagged JAK2 (unknown origin) after 3 hrs by Caliper assay
[2] = molecular target: JAK3/JAK1 (Homo sapiens, UniProt P23458+P52333); assay: Inhibition of JAK1/JAK3 in human whole blood assessed as reduction in IL-2 induced IFN-gamma production after 18 hrs by ELISA; format: protein-complex assay
[3] = molecular target: Serine/threonine-protein kinase 4 (Homo sapiens) (UniProt Q13043); assay: Inhibition of wild-type human full length MST1 (M1 to F487 residues) expressed in bacterial expression system assessed as residual activity at 50 nM by Kinomescan method relative to control
[4] = molecular target: Aurora kinase C (Homo sapiens) (UniProt Q9UQB9); assay: Inhibition of wild-type human full length AURC (M1 to S275 residues) expressed in bacterial expression system assessed as residual activity at 50 nM by Kinomescan method relative to control
[5] = molecular target: SRSF protein kinase 3 (Homo sapiens) (UniProt Q9UPE1); assay: Inhibition of wild-type human partial length MSSK1 (P41 to P567 residues) expressed in bacterial expression system assessed as residual activity at 50 nM by Kinomescan method relative to control
[6] = molecular target: Aurora kinase B (Homo sapiens) (UniProt Q96GD4); assay: Inhibition of wild-type human partial length AURB (D25 to A303 residues) expressed in mammalian expression system assessed as residual activity at 50 nM by Kinomescan method relative to control
[7] = molecular target: Serine/threonine-protein kinase Nek2 (Homo sapiens) (UniProt P51955); assay: Inhibition of wild-type human partial length NEK2 (M1 to K309 residues) expressed in bacterial expression system assessed as residual activity at 50 nM by Kinomescan method relative to control
[8] = molecular target: Ephrin type-A receptor 2 (Homo sapiens) (UniProt P29317); assay: Inhibition of wild-type human partial length EPHA2 (T593 to V891 residues) expressed in bacterial expression system assessed as residual activity at 50 nM by Kinomescan method relative to control
[9] = molecular target: Myosin-IIIa (Homo sapiens) (UniProt Q8NEV4); assay: Inhibition of wild-type human partial length MYO3A (M1 to K338 residues) expressed in bacterial expression system assessed as residual activity at 50 nM by Kinomescan method relative to control
[10] = molecular target: Calcium/calmodulin-dependent protein kinase type II subunit alpha (Homo sapiens) (UniProt Q9UQM7); assay: Inhibition of wild-type human partial length CAMK2A (M1 to K328 residues) expressed in bacterial expression system assessed as residual activity at 50 nM by Kinomescan method relative to control
[11] = molecular target: Serine/threonine-protein kinase Nek3 (Homo sapiens) (UniProt P51956); assay: Inhibition of wild-type human full length NEK3 (M1 to R506 residues) expressed in mammalian expression system assessed as residual activity at 50 nM by Kinomescan method relative to control
[12] = molecular target: Serine/threonine-protein kinase PLK3 (Homo sapiens) (UniProt Q9H4B4); assay: Inhibition of wild-type human partial length PLK3 (A42 to L334 residues) expressed in mammalian expression system assessed as residual activity at 50 nM by Kinomescan method relative to control
[13] = molecular target: Mitogen-activated protein kinase kinase kinase kinase 4 (Homo sapiens) (UniProt O95819); assay: Inhibition of wild-type human partial length HGK (M1 to R310 residues) expressed in bacterial expression system assessed as residual activity at 50 nM by Kinomescan method relative to control
[14] = molecular target: Serine/threonine-protein kinase 32A (Homo sapiens) (UniProt Q8WU08); assay: Inhibition of wild-type human full length STK32A (M1 to L396 residues) expressed in mammalian expression system assessed as residual activity at 50 nM by Kinomescan method relative to control
[15] = molecular target: Eukaryotic translation initiation factor 2-alpha kinase 1 (Homo sapiens) (UniProt Q9BQI3); assay: Inhibition of wild-type human partial length EIF2AK1 (Q147 to E603 residues) expressed in mammalian expression system assessed as residual activity at 50 nM by Kinomescan method relative to control
[16] = molecular target: Mitogen-activated protein kinase kinase kinase 20 (Homo sapiens) (UniProt Q9NYL2); assay: Inhibition of wild-type human partial length ZAK (M1 to L331 residues) expressed in bacterial expression system assessed as residual activity at 50 nM by Kinomescan method relative to control
[17] = molecular target: RAC-gamma serine/threonine-protein kinase (Homo sapiens) (UniProt Q9Y243); assay: Inhibition of wild-type human partial length AKT3 expressed in bacterial expression system assessed as residual activity at 50 nM by Kinomescan method relative to control
[18] = molecular target: Casein kinase I isoform gamma-3 (Homo sapiens) (UniProt Q9Y6M4); assay: Inhibition of wild-type human full length CK1G3 (M1 to K447 residues) expressed in bacterial expression system assessed as residual activity at 50 nM by Kinomescan method relative to control
[19] = molecular target: Tyrosine-protein kinase CSK (Homo sapiens) (UniProt P41240); assay: Inhibition of wild-type human full length CSK (M1 to L450 residues) expressed in bacterial expression system assessed as residual activity at 50 nM by Kinomescan method relative to control
[20] = molecular target: Fibroblast growth factor receptor 3 (Homo sapiens) (UniProt P22607); assay: Inhibition of wild-type human partial length FGFR3 (R442 to S771 residues) expressed in bacterial expression system assessed as residual activity at 50 nM by Kinomescan method relative to control
[21] = molecular target: Microtubule-associated serine/threonine-protein kinase 1 (Homo sapiens) (UniProt Q9Y2H9); assay: Inhibition of wild-type human partial length MAST1 (S346 to V730 residues) expressed in mammalian expression system assessed as residual activity at 50 nM by Kinomescan method relative to control
[22] = molecular target: Serine/threonine-protein kinase 38-like (Homo sapiens) (UniProt Q9Y2H1); assay: Inhibition of wild-type human partial length NDR2 (N34 to E447 residues) expressed in bacterial expression system assessed as residual activity at 50 nM by Kinomescan method relative to control
[23] = molecular target: Serine/threonine-protein kinase NLK (Homo sapiens) (UniProt Q9UBE8); assay: Inhibition of wild-type human full length NLK (M13 to E527 residues) expressed in bacterial expression system assessed as residual activity at 50 nM by Kinomescan method relative to control
[24] = molecular target: Serine/threonine-protein kinase D1 (Homo sapiens) (UniProt Q15139); assay: Inhibition of wild-type human partial length PKD1 (G551 to E870 residues) expressed in bacterial expression system assessed as residual activity at 50 nM by Kinomescan method relative to control
[25] = molecular target: Myosin light chain kinase, smooth muscle (Homo sapiens) (UniProt Q15746); assay: Inhibition of wild-type human full length SMMLCK (M854 to E1845 residues) expressed in mammalian expression system assessed as residual activity at 50 nM by Kinomescan method relative to control
[26] = molecular target: Dual specificity protein kinase TTK (Homo sapiens) (UniProt P33981); assay: Inhibition of wild-type human partial length TTK (N505 to V798 residues) expressed in bacterial expression system assessed as residual activity at 50 nM by Kinomescan method relative to control
Chain of Dual specificity protein kinase TTK (Homo sapiens) (P33981 whole entry, the tested form may be a part): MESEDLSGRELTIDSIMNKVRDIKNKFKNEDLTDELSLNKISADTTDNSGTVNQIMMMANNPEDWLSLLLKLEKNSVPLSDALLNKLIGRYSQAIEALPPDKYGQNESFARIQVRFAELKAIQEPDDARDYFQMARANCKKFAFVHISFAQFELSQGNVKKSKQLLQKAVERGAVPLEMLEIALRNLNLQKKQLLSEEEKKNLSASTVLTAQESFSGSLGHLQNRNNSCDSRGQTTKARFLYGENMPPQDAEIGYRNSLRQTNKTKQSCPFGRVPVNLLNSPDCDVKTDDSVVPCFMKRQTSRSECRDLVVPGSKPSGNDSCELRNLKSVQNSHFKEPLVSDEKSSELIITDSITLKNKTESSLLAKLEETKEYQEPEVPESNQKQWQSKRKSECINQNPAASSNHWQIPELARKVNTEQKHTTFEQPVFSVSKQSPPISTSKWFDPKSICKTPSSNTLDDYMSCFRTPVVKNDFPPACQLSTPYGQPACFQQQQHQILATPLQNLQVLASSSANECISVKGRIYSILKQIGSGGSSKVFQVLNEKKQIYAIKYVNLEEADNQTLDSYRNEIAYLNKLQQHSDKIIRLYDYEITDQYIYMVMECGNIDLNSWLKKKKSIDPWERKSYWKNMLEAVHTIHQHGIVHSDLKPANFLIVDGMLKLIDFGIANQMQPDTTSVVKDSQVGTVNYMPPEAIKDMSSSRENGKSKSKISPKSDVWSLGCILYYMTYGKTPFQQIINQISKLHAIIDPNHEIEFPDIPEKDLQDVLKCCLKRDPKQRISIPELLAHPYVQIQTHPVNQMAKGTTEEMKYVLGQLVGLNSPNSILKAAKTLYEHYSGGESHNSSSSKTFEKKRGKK

Chain of Microtubule-associated serine/threonine-protein kinase 1 (Homo sapiens) (Q9Y2H9 whole entry, looked up, the tested form may be a part): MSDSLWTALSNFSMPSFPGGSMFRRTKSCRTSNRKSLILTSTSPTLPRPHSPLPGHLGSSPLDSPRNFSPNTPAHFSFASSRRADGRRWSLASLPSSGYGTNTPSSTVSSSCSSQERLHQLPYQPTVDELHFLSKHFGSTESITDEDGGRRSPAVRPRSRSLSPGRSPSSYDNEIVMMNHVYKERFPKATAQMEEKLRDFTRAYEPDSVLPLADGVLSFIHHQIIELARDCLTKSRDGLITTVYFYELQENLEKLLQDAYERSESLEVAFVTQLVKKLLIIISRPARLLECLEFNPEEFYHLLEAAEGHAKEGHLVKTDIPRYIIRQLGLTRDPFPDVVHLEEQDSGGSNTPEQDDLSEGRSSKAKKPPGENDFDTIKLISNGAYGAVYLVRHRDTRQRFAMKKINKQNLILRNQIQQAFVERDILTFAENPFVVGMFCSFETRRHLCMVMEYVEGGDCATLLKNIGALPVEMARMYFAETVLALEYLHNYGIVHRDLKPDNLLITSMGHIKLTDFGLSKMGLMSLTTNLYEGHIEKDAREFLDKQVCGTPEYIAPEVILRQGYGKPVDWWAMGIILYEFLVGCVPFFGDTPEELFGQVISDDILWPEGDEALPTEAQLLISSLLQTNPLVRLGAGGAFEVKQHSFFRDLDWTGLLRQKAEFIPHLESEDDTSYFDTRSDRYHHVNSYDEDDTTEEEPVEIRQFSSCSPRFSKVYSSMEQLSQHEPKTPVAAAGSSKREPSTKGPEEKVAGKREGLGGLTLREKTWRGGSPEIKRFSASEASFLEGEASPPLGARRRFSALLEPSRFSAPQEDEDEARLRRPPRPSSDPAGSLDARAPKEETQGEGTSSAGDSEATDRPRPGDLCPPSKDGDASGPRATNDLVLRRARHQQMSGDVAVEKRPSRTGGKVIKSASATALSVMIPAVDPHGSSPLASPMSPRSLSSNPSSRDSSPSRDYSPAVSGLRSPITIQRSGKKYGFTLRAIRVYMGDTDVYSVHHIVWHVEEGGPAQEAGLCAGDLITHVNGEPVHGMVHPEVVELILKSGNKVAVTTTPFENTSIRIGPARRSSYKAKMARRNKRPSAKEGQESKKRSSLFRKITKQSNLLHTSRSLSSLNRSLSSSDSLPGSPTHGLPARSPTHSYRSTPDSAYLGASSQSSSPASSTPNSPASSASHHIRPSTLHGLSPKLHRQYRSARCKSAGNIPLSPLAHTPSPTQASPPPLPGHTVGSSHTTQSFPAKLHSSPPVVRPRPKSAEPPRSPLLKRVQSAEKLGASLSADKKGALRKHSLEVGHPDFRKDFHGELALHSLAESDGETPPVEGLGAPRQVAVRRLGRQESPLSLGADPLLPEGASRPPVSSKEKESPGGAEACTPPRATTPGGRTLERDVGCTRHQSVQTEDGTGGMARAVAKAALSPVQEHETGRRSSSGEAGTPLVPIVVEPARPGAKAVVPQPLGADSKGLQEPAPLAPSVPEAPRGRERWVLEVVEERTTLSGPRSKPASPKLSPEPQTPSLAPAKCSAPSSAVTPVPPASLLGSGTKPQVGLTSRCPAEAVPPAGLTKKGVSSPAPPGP
Chain of Mitogen-activated protein kinase kinase kinase kinase 4 (Homo sapiens) (O95819 2-1239 limits assumed): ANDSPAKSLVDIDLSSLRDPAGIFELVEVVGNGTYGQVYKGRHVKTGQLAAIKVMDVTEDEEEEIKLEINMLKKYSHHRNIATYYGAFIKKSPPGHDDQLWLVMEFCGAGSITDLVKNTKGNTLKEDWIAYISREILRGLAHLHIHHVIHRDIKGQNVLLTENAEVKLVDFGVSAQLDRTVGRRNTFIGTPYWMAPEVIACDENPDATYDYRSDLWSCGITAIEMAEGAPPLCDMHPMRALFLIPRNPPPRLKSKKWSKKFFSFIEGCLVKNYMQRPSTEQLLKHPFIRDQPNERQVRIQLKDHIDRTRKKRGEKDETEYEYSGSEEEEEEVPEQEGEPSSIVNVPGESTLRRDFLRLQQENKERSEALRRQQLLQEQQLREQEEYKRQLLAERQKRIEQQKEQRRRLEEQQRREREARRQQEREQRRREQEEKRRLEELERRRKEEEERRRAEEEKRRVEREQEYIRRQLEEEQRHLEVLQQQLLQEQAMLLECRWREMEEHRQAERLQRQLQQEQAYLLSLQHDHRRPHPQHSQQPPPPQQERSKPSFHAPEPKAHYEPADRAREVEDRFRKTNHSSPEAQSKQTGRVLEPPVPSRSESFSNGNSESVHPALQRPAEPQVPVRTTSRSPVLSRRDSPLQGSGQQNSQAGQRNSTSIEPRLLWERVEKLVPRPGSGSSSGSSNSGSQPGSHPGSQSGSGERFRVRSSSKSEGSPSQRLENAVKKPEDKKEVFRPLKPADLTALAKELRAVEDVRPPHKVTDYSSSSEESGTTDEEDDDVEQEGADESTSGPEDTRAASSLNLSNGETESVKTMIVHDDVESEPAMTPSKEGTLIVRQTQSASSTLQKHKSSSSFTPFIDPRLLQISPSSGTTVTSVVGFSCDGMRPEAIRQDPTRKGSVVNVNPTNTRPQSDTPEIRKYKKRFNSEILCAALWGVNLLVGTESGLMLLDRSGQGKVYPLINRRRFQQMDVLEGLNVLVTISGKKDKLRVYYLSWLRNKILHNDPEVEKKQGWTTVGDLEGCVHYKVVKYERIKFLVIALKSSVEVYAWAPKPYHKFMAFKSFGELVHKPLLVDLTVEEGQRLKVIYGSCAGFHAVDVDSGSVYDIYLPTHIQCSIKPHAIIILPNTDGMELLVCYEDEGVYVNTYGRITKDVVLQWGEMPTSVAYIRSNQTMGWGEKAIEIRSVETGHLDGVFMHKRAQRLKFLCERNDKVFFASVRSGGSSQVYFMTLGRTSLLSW
Chain of Eukaryotic translation initiation factor 2-alpha kinase 1 (Homo sapiens) (Q9BQI3 whole entry, the tested form may be a part): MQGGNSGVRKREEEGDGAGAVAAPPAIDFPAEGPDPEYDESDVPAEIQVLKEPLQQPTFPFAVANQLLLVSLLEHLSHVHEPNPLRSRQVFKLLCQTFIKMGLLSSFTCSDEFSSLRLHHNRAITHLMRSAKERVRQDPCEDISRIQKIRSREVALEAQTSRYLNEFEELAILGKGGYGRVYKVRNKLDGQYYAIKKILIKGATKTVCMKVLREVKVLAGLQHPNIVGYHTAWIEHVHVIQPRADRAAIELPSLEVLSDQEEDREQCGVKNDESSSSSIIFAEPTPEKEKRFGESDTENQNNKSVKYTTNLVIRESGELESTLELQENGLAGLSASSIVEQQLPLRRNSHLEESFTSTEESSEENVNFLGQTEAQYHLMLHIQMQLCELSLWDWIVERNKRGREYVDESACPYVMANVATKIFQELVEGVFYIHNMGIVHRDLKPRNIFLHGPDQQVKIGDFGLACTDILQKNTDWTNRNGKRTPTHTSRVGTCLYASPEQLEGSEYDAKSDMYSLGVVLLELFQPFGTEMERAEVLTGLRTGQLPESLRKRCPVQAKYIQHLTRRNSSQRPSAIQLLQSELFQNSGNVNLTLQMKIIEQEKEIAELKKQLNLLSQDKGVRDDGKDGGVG
Chain of Fibroblast growth factor receptor 3 (Homo sapiens) (P22607 23-806 limits assumed): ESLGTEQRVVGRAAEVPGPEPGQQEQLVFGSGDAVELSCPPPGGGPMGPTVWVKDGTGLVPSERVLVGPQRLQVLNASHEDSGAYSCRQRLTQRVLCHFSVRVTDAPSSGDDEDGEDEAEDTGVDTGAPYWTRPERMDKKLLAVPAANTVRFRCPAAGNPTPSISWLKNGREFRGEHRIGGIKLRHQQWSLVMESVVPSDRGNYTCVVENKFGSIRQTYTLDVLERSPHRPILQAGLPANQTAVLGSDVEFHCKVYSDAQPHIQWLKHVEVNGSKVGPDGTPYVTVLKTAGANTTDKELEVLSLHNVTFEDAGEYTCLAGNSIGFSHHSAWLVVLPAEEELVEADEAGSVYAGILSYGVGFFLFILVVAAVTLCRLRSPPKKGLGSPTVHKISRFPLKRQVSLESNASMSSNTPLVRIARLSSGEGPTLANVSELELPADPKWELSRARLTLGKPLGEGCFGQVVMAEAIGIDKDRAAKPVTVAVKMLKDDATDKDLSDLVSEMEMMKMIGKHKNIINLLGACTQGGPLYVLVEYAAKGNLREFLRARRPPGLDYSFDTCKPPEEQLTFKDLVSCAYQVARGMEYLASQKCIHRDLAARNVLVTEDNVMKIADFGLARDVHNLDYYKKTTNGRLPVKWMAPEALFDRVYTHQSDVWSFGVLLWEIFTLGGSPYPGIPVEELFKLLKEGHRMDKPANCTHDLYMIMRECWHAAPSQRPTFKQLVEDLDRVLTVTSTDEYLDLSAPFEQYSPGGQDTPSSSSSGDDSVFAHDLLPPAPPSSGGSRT

Structure (SMILES): COc1ccc(-c2cc3c(N[C@@H]4CC[C@](C)(N)C4(C)C)c(C(N)=O)cnn3c2)cn1
- IC50 [1]: 0.015 µM
- IC50 [2]: 0.1 µM
- Activity [3]: 35%
- Activity [4]: 82%
- Activity [5]: 100%
- Activity [6]: 100%
- Activity [7]: 93%
- Activity [8]: 100%
- Activity [9]: 94%
- Activity [10]: 100%
- Activity [11]: 100%
- Activity [12]: 95%
- Activity [13]: 100%
- Activity [14]: 100%
- Activity [15]: 96%
- Activity [16]: 91%
- Activity [17]: 100%
- Activity [18]: 100%
- Activity [19]: 100%
- Activity [20]: 82%
- Activity [21]: 98%
- Activity [22]: 100%
- Activity [23]: 71%
- Activity [24]: 96%
- Activity [25]: 87%
- Activity [26]: 81%

Structure (SMILES): CC1(C)[C@H](Nc2c(C(N)=O)cnn3cc(-c4ccccc4)cc23)CC[C@]1(C)N
- IC50 [1]: 0.009 µM
- IC50 [2]: 0.2 µM
- Activity [3]: 19%
- Activity [4]: 42%
- Activity [5]: 56%
- Activity [6]: 64%
- Activity [7]: 72%
- Activity [8]: 81%
- Activity [9]: 87%
- Activity [10]: 88%
- Activity [11]: 89%
- Activity [12]: 89%
- Activity [13]: 90%
- Activity [14]: 92%
- Activity [15]: 94%
- Activity [16]: 96%
- Activity [17]: 100%
- Activity [18]: 100%
- Activity [19]: 100%
- Activity [20]: 100%
- Activity [21]: 100%
- Activity [22]: 100%
- Activity [23]: 100%
- Activity [24]: 100%
- Activity [25]: 100%
- Activity [26]: 100%
